Reference: article PMC6273152, “Design, Synthesis, and Biological Evaluation of Novel PARP-1 Inhibitors Based on a 1H-Thieno[3,4-d] Imidazole-4-Carboxamide Scaffold” (Molecules, 2016)
Read-outs that look alike come from different tables or passages of the source. Values belong to the compound of their own block, whether it stands above or below them.

Assays:
PARP-1 enzyme = molecular target: T1, PARP-1 enzyme (Homo sapiens, UniProt P09874); test: PARP-1 enzymatic inhibition assay (Trevigen 96-well kit, fluorescence); assay type: biochemical; details: logit method, six concentrations, read-out: IC50 (PARP-1 enzyme inhibitory activity)
T1 construct: purchased Trevigen 4690-096-K
T1 sequence (P09874 whole entry): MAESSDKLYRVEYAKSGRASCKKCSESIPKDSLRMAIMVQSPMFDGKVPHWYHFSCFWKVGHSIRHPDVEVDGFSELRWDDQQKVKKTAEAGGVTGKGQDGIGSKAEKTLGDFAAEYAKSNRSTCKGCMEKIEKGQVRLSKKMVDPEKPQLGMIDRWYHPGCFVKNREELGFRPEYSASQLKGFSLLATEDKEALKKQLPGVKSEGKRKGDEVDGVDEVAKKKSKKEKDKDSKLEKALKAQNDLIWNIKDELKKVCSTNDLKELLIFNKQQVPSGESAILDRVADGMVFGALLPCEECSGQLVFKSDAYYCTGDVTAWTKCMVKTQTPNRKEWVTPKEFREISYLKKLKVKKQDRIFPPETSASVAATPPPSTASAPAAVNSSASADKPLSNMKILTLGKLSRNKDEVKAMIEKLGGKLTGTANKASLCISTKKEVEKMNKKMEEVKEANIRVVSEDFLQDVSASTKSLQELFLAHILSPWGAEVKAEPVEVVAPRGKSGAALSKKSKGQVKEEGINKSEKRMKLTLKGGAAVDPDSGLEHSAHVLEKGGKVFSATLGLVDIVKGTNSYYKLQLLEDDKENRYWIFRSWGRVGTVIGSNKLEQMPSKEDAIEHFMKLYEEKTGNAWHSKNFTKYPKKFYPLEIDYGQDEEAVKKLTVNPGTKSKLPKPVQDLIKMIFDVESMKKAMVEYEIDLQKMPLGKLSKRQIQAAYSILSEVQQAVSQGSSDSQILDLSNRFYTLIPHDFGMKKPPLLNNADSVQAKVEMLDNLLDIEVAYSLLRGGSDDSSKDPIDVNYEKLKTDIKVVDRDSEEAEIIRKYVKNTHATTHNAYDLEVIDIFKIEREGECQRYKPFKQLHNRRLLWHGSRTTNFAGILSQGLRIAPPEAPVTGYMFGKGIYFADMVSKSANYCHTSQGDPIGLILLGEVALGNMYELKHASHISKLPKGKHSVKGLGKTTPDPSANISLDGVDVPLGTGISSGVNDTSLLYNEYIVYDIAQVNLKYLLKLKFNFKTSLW
Protocol: All target compounds were evaluated in vitro for their PARP-1 enzyme inhibitory activity.
The procedure was according to the instructions provided by the manufacturer. […] 25 μL of 1 × Buffer was added to each well and 25 μL of appropriate 2 × NAD^+ standards were added to 1B to 1G and 2B to 2G well of 96-well plate for standard curve. 25 μL of 2 μM NAD was added to 1H and 2H for PARP control. 25 μL of 2 μM NAD was added to wells for test compounds, then serially diluted compounds were added, and 1 μL of DMSO was added to the standard well. 25 μL of PARP Mix minus enzyme was added to 1A to 1G and 25 μL of PARP Mix plus enzyme was added to PARP control and compounds well. […] Then 50 μL stop solution was added to each well, and mixed with pipette. […] Then draw the standard curve and calculate the inhibition rate of each test compound.

[1] = system: HCC1937 (BRCA1-deficient) cells; test: CellTiter Glo assay for cell growth inhibition, HCC1937; details: HCC1937, 96 h, read-out: IC50 (BRCA-1, HCC1937)
Protocol: (§1) The growth inhibition potential of test compounds was determined on BRCA1-deficient cell lines HCC1937 and BRCA2-deficient cell lines CAPAN-1. The stock solutions of test compounds were dissolved in DMSO and serially diluted to the required concentrations for 9 doses. […] 60 μL medium was removed from each well and plates were kept at room temperature for 30 min. 60 μL reagent (Celltiter Glo assay kit, Promega, Sunnyvale, CA, USA) per well was added and plates were shaked for 2 min. Cells were incubated avoiding light at room temperature for 30 min and the luminescence value was recorded by multiplate reader. GraphPad Prism 5 was used to plot effect-dose curves and calculate the IC50 values of compounds.

[2] = system: normal human lung fibroblast (HLF) cells; test: Cytotoxicity assay (MTT) on normal human lung fibroblast cells; details: 72 h
Protocol: (§2) The cytotoxic potencies of test compounds were determined on normal human lung fibroblast (HLF) cells. Cells were seeded into 96-well plate at 3000 cells/well. The stock solutions of test compounds were dissolved in DMSO and serially diluted to the required concentrations for 7 doses, and the final testing concentrations for these compounds were 0.3, 1, 3, 10, 30, 100, 300 µM. […] The fraction of surviving cells after compound treatment was determined using the MTT assay.

[3] = system: CAPAN-1 (BRCA2-deficient) cells; test: CellTiter Glo assay for cell growth inhibition, CAPAN-1; details: CAPAN-1, 96 h, read-out: IC50 (BRCA-2, CAPAN-1)
Protocol: as §1

in vitro = details: human, normal human lung fibroblast (HLF) cells
Protocol: as §2

[4] = CellTiter Glo, nine concentrations

IC50 (PARP-1 enzyme; Table 2 series (16a–n)): 548 nM
melting point: 283 to 285 °C
SMILES: NC(=O)c1scc2[nH]c(-c3ccc(C(F)(F)F)cc3)nc12 [Compound 16f, 2-(4-(Trifluoromethyl)phenyl)-1H-thieno[3,4-d]imidazole-4-carboxamide]

IC50 (PARP-1 enzyme; Table 2 series (16a–n)): 738 nM
melting point: 244 to 246 °C
SMILES: NC(=O)c1scc2[nH]c(-c3ccc(F)cc3)nc12 [Compound 16b, 2-(4-Fluorophenyl)-1H-thieno[3,4-d]imidazole-4-carboxamide]

melting point: 241 to 243 °C
SMILES: NC(=O)c1scc2[nH]c(-c3ccccc3C(F)(F)F)nc12 [Compound 16h, 2-(2-(Trifluoromethyl)phenyl)-1H-thieno[3,4-d]imidazole-4-carboxamide]

IC50 ([1]; Homo sapiens): 49.2 ± 5.43 µM
IC50 (PARP-1 enzyme; Table 2 series (16a–n)): 43 nM
IC50 at 72 h (in vitro): > 300 µM
SMILES: Cc1ccc(-c2nc3c(C(N)=O)scc3[nH]2)cc1 [Compound 16l, 2-(p-Tolyl)-1H-thieno[3,4-d]imidazole-4-carboxamide]
Inhibition Rate ([2]; 0.3 µM): 0.42%
Inhibition Rate ([2]; 1 µM): 3.80%
Inhibition Rate ([2]; 3 µM): 7.12%
Inhibition Rate ([2]; 10 µM): 10.16%
Inhibition Rate ([2]; 30 µM): 13.65%
Inhibition Rate ([2]; 100 µM): 23.20%
Inhibition Rate ([2]; 300 µM): 27.94%
IC50 ([3]; Homo sapiens): 38.8 ± 1.6 µM

IC50 ([1]; Homo sapiens): 32.9 ± 4.21 µM
IC50 (PARP-1 enzyme; Table 2 series (16a–n)): 136 nM
IC50 at 72 h (in vitro): 94.1 ± 2.2 µM
SMILES: NC(=O)c1scc2[nH]c(-c3ccc([N+](=O)[O-])cc3)nc12 [Compound 16i, 2-(4-Nitrophenyl)-1H-thieno[3,4-d]imidazole-4-carboxamide]
Inhibition Rate ([2]; 0.3 µM): −0.05%
Inhibition Rate ([2]; 1 µM): 1.33%
Inhibition Rate ([2]; 3 µM): 0.99%
Inhibition Rate ([2]; 10 µM): 3.37%
Inhibition Rate ([2]; 30 µM): 2.56%
Inhibition Rate ([2]; 100 µM): 55.26%
Inhibition Rate ([2]; 300 µM): 99.63%
IC50 ([3]; Homo sapiens): 26.8 ± 1.55 µM

IC50 (PARP-1 enzyme; Table 2 series (16a–n)): 1490 nM
melting point: 202 to 204 °C
SMILES: NC(=O)c1scc2[nH]c(-c3ccccc3Cl)nc12 [Compound 16d, 2-(2-Chlorophenyl)-1H-thieno[3,4-d]imidazole-4-carboxamide]

melting point: 210 to 212 °C
SMILES: NC(=O)c1scc2[nH]c(-c3c(Cl)cccc3Cl)nc12 [Compound 16e, 2-(2,6-Dichlorophenyl)-1H-thieno[3,4-d]imidazole-4-carboxamide]

IC50 (PARP-1 enzyme; Table 2 series (16a–n)): 5790 nM
melting point: 254 to 255 °C
SMILES: Cc1cccc(-c2nc3c(C(N)=O)scc3[nH]2)c1 [Compound 16m, 2-(m-Tolyl)-1H-thieno[3,4-d]imidazole-4-carboxamide]

IC50 (PARP-1 enzyme; Table 2 series (16a–n)): 1490 nM
melting point: 230 to 242 °C
SMILES: COc1cccc(-c2nc3c(C(N)=O)scc3[nH]2)c1 [Compound 16k, 2-(3-Methoxyphenyl)-1H-thieno[3,4-d]imidazole-4-carboxamide]

IC50 ([1]; Homo sapiens): 55.14 ± 0.24 µM
IC50 (PARP-1 enzyme; Table 2 series (16a–n)): 102 nM
IC50 at 72 h (in vitro): > 300 µM
SMILES: COc1ccc(-c2nc3c(C(N)=O)scc3[nH]2)cc1 [Compound 16j, 2-(4-Methoxyphenyl)-1H-thieno[3,4-d]imidazole-4-carboxamide]
Inhibition Rate ([2]; 0.3 µM): 0.68%
Inhibition Rate ([2]; 1 µM): 2.85%
Inhibition Rate ([2]; 3 µM): 2.68%
Inhibition Rate ([2]; 10 µM): 6.95%
Inhibition Rate ([2]; 30 µM): 9.43%
Inhibition Rate ([2]; 100 µM): 12.63%
Inhibition Rate ([2]; 300 µM): 32.37%
IC50 ([3]; Homo sapiens): 46.6 ± 0.62 µM

IC50 (PARP-1 enzyme; Table 2 series (16a–n)): 328 nM
melting point: 222 to 223 °C
SMILES: Cc1ccccc1-c1nc2c(C(N)=O)scc2[nH]1 [Compound 16n, 2-(o-Tolyl)-1H-thieno[3,4-d]imidazole-4-carboxamide]

IC50 (PARP-1 enzyme; Table 2 series (16a–n)): 354 nM
melting point: 245 to 246 °C
SMILES: NC(=O)c1scc2[nH]c(-c3ccc(Cl)cc3)nc12 [Compound 16c, 2-(4-Chlorophenyl)-1H-thieno[3,4-d]imidazole-4-carboxamide]

IC50 ([1]; Homo sapiens): 31.3 ± 0.35 µM
IC50 (PARP-1 enzyme; Table 2 series (16a–n)): 151 nM
IC50 at 72 h (in vitro): 77.6 ± 1.5 µM
SMILES: NC(=O)c1scc2[nH]c(-c3cccc(C(F)(F)F)c3)nc12 [Compound 16g, 2-(3-(Trifluoromethyl)phenyl)-1H-thieno[3,4-d]imidazole-4-carboxamide]
Inhibition Rate ([2]; 0.3 µM): −1.65%
Inhibition Rate ([2]; 1 µM): −1.02%
Inhibition Rate ([2]; 3 µM): −0.63%
Inhibition Rate ([2]; 10 µM): 0.76%
Inhibition Rate ([2]; 30 µM): 4.13%
Inhibition Rate ([2]; 100 µM): 69.88%
Inhibition Rate ([2]; 300 µM): 99.40%
IC50 ([3]; Homo sapiens): 38.6 ± 6.75 µM

IC50 (PARP-1 enzyme; Table 2 series (16a–n)): 827 nM
melting point: 256 to 257 °C
SMILES: NC(=O)c1scc2[nH]c(-c3ccccc3)nc12 [Compound 16a, 2-Phenyl-1H-thieno[3,4-d]imidazole-4-carboxamide]

The next lines start with the compound.

SMILES: Cc1ccc(CN2CCN(C(=O)c3ccc(-c4nc5c(C(N)=O)scc5[nH]4)cc3)CC2)cc1 [Compound 13i, 2-(4-(4-(4-Methylbenzyl)piperazine-1-carbonyl)phenyl)-1H-thieno[3,4-d]imidazole-4-carboxamide]
melting point: 272 to 273 °C

SMILES: NC(=O)c1scc2[nH]c(-c3ccc(C(=O)N4CCNCC4)cc3)nc12 [Compound 12, 2-(4-(Piperazine-1-carbonyl)phenyl)-1H-thieno[3,4-d]imidazole-4-carboxamide]
IC50 (PARP-1 enzyme; Table 1 series (12, 13a–j)): 723 nM

SMILES: NC(=O)c1scc2[nH]c(-c3ccc(C(=O)N4CCN(Cc5ccccc5)CC4)cc3)nc12 [Compound 13f, 2-(4-(4-Benzylpiperazine-1-carbonyl)phenyl)-1H-thieno[3,4-d]imidazole-4-carboxamide]
IC50 (PARP-1 enzyme; Table 1 series (12, 13a–j)): 3860 nM

SMILES: NC(=O)c1scc2[nH]c(-c3ccc(C(=O)N4CCN(C(=O)C5CC5)CC4)cc3)nc12 [Compound 13j, 2-(4-(4-(Cyclopropanecarbonyl)piperazine-1-carbonyl)phenyl)-1H-thieno[3,4-d]imidazole-4-carboxamide]
IC50 (PARP-1 enzyme; Table 1 series (12, 13a–j)): 1520 nM
melting point: 272 to 273 °C

SMILES: NC(=O)c1scc2[nH]c(-c3ccc(C(=O)N4CCN(C(=O)c5cccs5)CC4)cc3)nc12 [Compound 13a, 2-(4-(4-(Thiophene-2-carbonyl)piperazine-1-carbonyl)phenyl)-1H-thieno[3,4-d]imidazole-4-carboxamide]
IC50 (PARP-1 enzyme; Table 1 series (12, 13a–j)): 2570 nM

SMILES: N#Cc1ccc(CN2CCN(C(=O)c3ccc(-c4nc5c(C(N)=O)scc5[nH]4)cc3)CC2)cc1 [Compound 13h, 2-(4-(4-(4-Cyanobenzyl)piperazine-1-carbonyl)phenyl)-1H-thieno[3,4-d]imidazole-4-carboxamide]
IC50 (PARP-1 enzyme; Table 1 series (12, 13a–j)): 3720 nM
melting point: 284 to 286 °C

SMILES: NC(=O)c1scc2[nH]c(-c3ccc(C(=O)N4CCN(C(=O)c5ccccc5)CC4)cc3)nc12 [Compound 13b, 2-(4-(4-Benzoylpiperazine-1-carbonyl)phenyl)-1H-thieno[3,4-d]imidazole-4-carboxamide]
IC50 (PARP-1 enzyme; Table 1 series (12, 13a–j)): 3760 nM
melting point: 270 to 272 °C

SMILES: O=C(c1cc(Cc2n[nH]c(=O)c3ccccc23)ccc1F)N1CCN(C(=O)C2CC2)CC1 [Olaparib, olaparib, reference compound]
IC50 ([1]; Homo sapiens): 133 ± 14.4 µM
Inhibition Rate ([2]; 0.3 µM): 1.88%
Inhibition Rate ([2]; 1 µM): 1.83%
Inhibition Rate ([2]; 3 µM): 1.10%
Inhibition Rate ([2]; 10 µM): 1.37%
Inhibition Rate ([2]; 30 µM): 1.04%
Inhibition Rate ([2]; 100 µM): 29.60%
Inhibition Rate ([2]; 300 µM): 91.45%
IC50 ([3]; Homo sapiens): 13.4 ± 1.16 µM
IC50 at 72 h (in vitro): 134 ± 3.14 µM

SMILES: Cc1ccc(C(=O)N2CCN(C(=O)c3ccc(-c4nc5c(C(N)=O)scc5[nH]4)cc3)CC2)cc1 [Compound 13e, 2-(4-(4-(4-Methylbenzoyl)piperazine-1-carbonyl)phenyl)-1H-thieno[3,4-d]imidazole-4-carboxamide]
melting point: 308 to 310 °C

SMILES: NC(=O)c1scc2[nH]c(-c3ccc(C(=O)N4CCN(Cc5ccc(Br)cc5)CC4)cc3)nc12 [Compound 13g, 2-(4-(4-(4-Bromobenzyl)piperazine-1-carbonyl)phenyl)-1H-thieno[3,4-d]imidazole-4-carboxamide]
melting point: 285 to 288 °C

SMILES: NC(=O)c1scc2[nH]c(-c3ccc(C(=O)N4CCN(C(=O)c5ccc(Cl)cc5)CC4)cc3)nc12 [Compound 13d, 2-(4-(4-(4-Chlorobenzoyl)piperazine-1-carbonyl)phenyl)-1H-thieno[3,4-d]imidazole-4-carboxamide]
melting point: 247 to 249 °C

SMILES: C[C@]1(c2nc3c(C(N)=O)cccc3[nH]2)CCCN1 [Veliparib, veliparib, reference compound]
IC50 [1, 4]: 127 ± 18.1 µM
Inhibition Rate ([2]; 0.3 µM): 1.00%
Inhibition Rate ([2]; 1 µM): −0.28%
Inhibition Rate ([2]; 3 µM): −1.20%
Inhibition Rate ([2]; 10 µM): −1.35%
Inhibition Rate ([2]; 30 µM): −0.06%
Inhibition Rate ([2]; 100 µM): −0.45%
Inhibition Rate ([2]; 300 µM): 93.64%
IC50 [3, 4]: 57.7 ± 12.4 µM
IC50 at 72 h (in vitro): ~200 µM

SMILES: NC(=O)c1scc2[nH]c(-c3ccc(C(=O)N4CCN(C(=O)c5ccc(Br)cc5)CC4)cc3)nc12 [Compound 13c, 2-(4-(4-(4-Bromobenzoyl)piperazine-1-carbonyl)phenyl)-1H-thieno[3,4-d]imidazole-4-carboxamide]
IC50 (PARP-1 enzyme; Table 1 series (12, 13a–j)): 1870 nM
melting point: 294 to 296 °C
